“Also recorded” adds a separate entry of the source.
Experiments:
INS-1 cells [1] = assay: Effect on insulin secretion of INS-1 cells (stimulation index, rat insulin RIA); assay type: cell-based; conditions: for Stimulation index (SI): 16.7 mM / […] glucose; for insulin secretion of INS-1 cells in words: concentrations of Table 2
Procedure: Thereafter, the cells were washed twice with 2 ml of Krebs-Ringer buffer which was prepared by mixing 114 mM sodium chloride (NaCl), 4.4 mM potassium chloride (KCl), 1 mM magnesium sulfate (MgSO4), 1.28 mM calcium chloride (CaCl2), 29.5 mM sodium bicarbonate (NaHCO3), 10 mM Hepes (Gibco BRL Life Technologies), and 0.1% bovine serum albumin (BSA) and adjusting a hydrogen ion concentration at pH 7.4.
The concentration of the single compound was 1 μM, 2.5 μM, and 5 μM.
0.2 mL of Krebs-Ringer buffer containing […] glucose was added to each well, and incubated for 1 hour. Thereafter, centrifugation was performed at 4° C. for 10 minutes at 12,000 rpm, and a supernatant was taken and quantity of insulin was measured by using a Rat insulin RIA kit (Gentaur Molecular Products, Belgium). Stimulation index (SI) was calculated by dividing a value measured at a high concentration of glucose, i.e., quantity of insulin secreted by stimulation of 16.7 mM glucose by a value measured at a low concentration of glucose, i.e., quantity of insulin secreted by stimulation of 3.3 mM glucose. As a positive control group, gliclazide was used at a concentration of 2.5 μM, 5.0 μM, 10 μM, or 20 μM.

INS-1 cells [2] = assay: Measurement of cytotoxicity against INS-1 cells (CCK-8 cell viability); assay type: cell-based, rat; conditions: for Cell viability (%): 24 hours, INS-1; for cytotoxicity / toxicity in words: INS-1 cells, concentrations of Table 1
Procedure: A cell line INS-1 (Biohermes, Shanghai, China) is a rat insulinoma, and has ability to secrete insulin.
The concentration of the single compound was 1.0 μM, 2.5 μM, and 5.0 μM.
In Table 1, cell viability was calculated by the following equation:
Cell viability (%)=NB×100, wherein A represents absorbance of a non-sample added group and B represents absorbance of a sample-added group.

INS-1 cells [3] = assay: Protecting effect on pancreatic toxicity (streptozotocin-treated INS-1 cells, CCK-8); conditions: for Cell viability (%): rat, 24 h
Procedure: The cell line INS-1 (Biohermes, Shanghai, China) was used to evaluate a protecting effect on pancreatic toxicity as follows.
INS-1 cells were cultured in RPMI1640 medium (Cellgro, Manassas, USA) supplemented with 10% fetal bovine serum (FBS), 100 unit/mL of penicillin G, 100 μg/mL of streptomycin, 10 mM Hepes, 2 mM L-glutamine, 1 mM sodium pyruvate, and 0.05 mM 2-merchapto ethanol in an incubator maintained at 37° C. and 95% air/5% carbon dioxide. Among the above-mentioned ingredients, the reagents of which manufacturers were not mentioned were purchased from Gibco BRL, Life Technologies.
The cultured INS-1 cells were dispensed at a density of 1×10^4 per well in 100 μL of the same medium in a 96-well plate, and cultured for 24 hours under the same conditions to stabilize the cells. […] Then, 10 μL (final concentration of 50 μM) of 500 μM streptozotocin in the same medium was added and cultured for 24 hours. Then, 10 μL of CCK-8 (Dojindo Laboratories, Japan) reagent was added to each well, and cultured at 37° C. 1 hour later, absorbance at 450 nm was measured by using a BIO-TEK (Winooski, Vt., USA) microplate reader to measure cell viability. The predetermined concentrations are as follows: concentrations of the extract and the fractions were 0 μg/mL, 5 μg/mL, 10 μg/mL, 25 μg/mL, 50 μg/mL, and 100 μg/mL. The concentration of the single compound was 0 μM, 5 μM, 10 μM, 25 μM, 50 μM, and 100 μM.

INS-1 cells [4] = assay: Image-based cell analysis of apoptosis (Annexin V/PI) in streptozotocin-treated INS-1 cells; design: species or system rat; conditions: 50 μM streptozotocin; for green fluorescent (apoptotic) cells, microscopic image FIG. 8A: 10 μM or more; for Apoptosis (%): 10 μM, 24 hours, annexin V-positive cells; for apoptosis by streptozotocin in words, FIG. 8B: INS-1 cells
Procedure: Thereafter, hypoxylonol-C and BNT at a concentration of 10 μM were added to 2.7 mL of the same medium and further cultured for 2 hours. […] Then, cells were collected by using trypsin, and washed with PBS once. The cells were suspended in 100 μL of Annexin binding buffer (composition: 100 mM HEPES, 140 mM NaCl, 25 mM CaCl2, pH 7.4) at a density of 5×10^5 to 5×10^6 cells/mL, and then mixed with 5 μL of Annexin V Alexa Fluor 488, and fixed and stained at room temperature for 20 minutes in the dark room. The cell suspension was centrifuged to discard the supernatant. Precipitated cell pellets were re-suspended in 100 μL of Annexin binding buffer. 1 μL of propidium was added to the cell suspension and mixed well to fix and stain the cells at room temperature for 1 minute to 5 minutes in the dark room. Analysis of the stained cells was performed by using a Tali Image-based cytometer and TaliPCApp (version 1.0).
Cells were sorted into living cells (annexin V-negative/PI-negative), early apoptotic cells (annexin V-positive/PI-negative), and late apoptotic cells or necrotic cells (annexin V-positive/PI-positive), and total apoptotic cells was expressed as a percentage of annexin V-positive/PI-negative or positive cells.

[5] = Fukai et al., J. Nat. Prod. 2014, 77, 1065-1068; cited from earlier work
[6] = 2.5 (head μg/ml; b127, b128 μM for single compound and gliclazide)
[7] = 5.0 (head μg/ml; b127, b128 μM for single compound and gliclazide)
[8] = 1.0 (μg/mL; μM for single compound)
[9] = 2.5 (μg/mL; μM for single compound)
[10] = 5.0 (μg/mL; μM for single compound)
[11] = 1.0 (head μg/ml; b127 μM for single compound)

**Q.** What does the source list for `Cc1ccc(S(=O)(=O)NC(=O)NN2CC3CCCC3C2)cc1` (stereo not shown) [gliclazide, reference compound]?
**A.** Stimulation index (SI) (INS-1 cells [1]; [6]): 6.1 ± 0.0; Stimulation index (SI) (INS-1 cells [1]; [7]): 5.7 ± 0.0; Stimulation index (SI) (INS-1 cells [1]; 10.0 (head μg/ml; b128 μM for gliclazide)): 6.1 ± 0.1; Stimulation index (SI) (INS-1 cells [1]; 20.0 (head μg/ml; b128 μM for gliclazide)): 9.3 ± 0.0

**Q.** With `Oc1cccc2c(-c3ccc(O)c4c(O)cccc34)ccc(O)c12` [BNT, 1,1′-binaphthalene-4,4′,5,5′-tetrol] as the compound, how does the “Cell viability (%)” value (INS-1 cells [2]; [8]) read?
**A.** The value was 100.3 ± 3.6%.

**Q.** And the “Cell viability (%)” value (INS-1 cells [2]; [9])?
**A.** Its value is 100.1 ± 2.1%.

**Q.** And the “Cell viability (%)” value (INS-1 cells [2]; [10])?
**A.** The value was 106.6 ± 2.9%.

**Q.** And the “cytotoxicity / toxicity in words” value (INS-1 cells [2])?
**A.** Its value is “no cytotoxicity; also recorded: no toxicity”.

**Q.** What about the “Stimulation index (SI)” value (INS-1 cells [1]; [11]) of the same compound?
**A.** Its value is 6.7 ± 0.0.

**Q.** What about the “Stimulation index (SI)” value (INS-1 cells [1]; [6]) of the same compound?
**A.** Its value is 7.4 ± 0.0.

**Q.** And the “Stimulation index (SI)” value (INS-1 cells [1]; [7])?
**A.** Its value is 6.8 ± 0.2.

**Q.** What about the “insulin secretion of INS-1 cells in words” value (from here on “insulin secretion”) (INS-1 cells [1]) of the same compound?
**A.** The value was “concentration-dependent manner”.

**Q.** And the “cell viability reduced by streptozotocin, effect in words” value (from here on “cell viability reduced”) (INS-1 cells [3]; 50 μM streptozotocin)?
**A.** The value was “significantly increased cell viability”.

**Q.** And the “Cell viability (%)” value (INS-1 cells [3]; 5 µM)?
**A.** Its value is 73.5 ± 3.0%.

**Q.** And the “Cell viability (%)” value (INS-1 cells [3]; 10 µM)?
**A.** The value was 76.8 ± 4.5%.

**Q.** And the “Cell viability (%)” value (INS-1 cells [3]; 25 µM)?
**A.** Its value is 78.4 ± 1.5%.

**Q.** And the “Cell viability (%)” value (INS-1 cells [3]; 50 µM)?
**A.** Its value is 81.5 ± 3.3%.

**Q.** What about the “green fluorescent (apoptotic) cells, microscopic image FIG. 8A” value (INS-1 cells [4]) of the same compound?
**A.** The value was “apoptotic cells were decreased”.

**Q.** And the “Apoptosis (%)” value (INS-1 cells [4])?
**A.** The value was 19.3 ± 0.5%.

**Q.** And the “apoptosis by streptozotocin in words, FIG. 8B” value (INS-1 cells [4])?
**A.** The value was “remarkably reduced apoptosis”.

**Q.** Which “Cell viability (%)” value (INS-1 cells [2]; [8]) does the source give for `O=C1CC2C(=C3c4c2ccc(O)c4[C@H](O)C[C@@H]3O)c2cccc(O)c21` (stereo partly shown) [Hypoxylonol-F] here?
**A.** The value was 96.2 ± 4.5%.

**Q.** What about the “Cell viability (%)” value (INS-1 cells [2]; [9]) of the same compound?
**A.** The value was 97.3 ± 4.6%.

**Q.** And the “Cell viability (%)” value (INS-1 cells [2]; [10])?
**A.** Its value is 96.1 ± 0.9%.

**Q.** What about the “cytotoxicity / toxicity in words” value (INS-1 cells [2]) of the same compound?
**A.** Its value is “no cytotoxicity; also recorded: no toxicity”.

**Q.** What about the “Stimulation index (SI)” value (INS-1 cells [1]; [11]) of the same compound?
**A.** The value was 7.1 ± 0.4.

**Q.** What about the “Stimulation index (SI)” value (INS-1 cells [1]; [6]) of the same compound?
**A.** Its value is 7.7 ± 0.3.

**Q.** And the “Stimulation index (SI)” value (INS-1 cells [1]; [7])?
**A.** Its value is 10.6 ± 0.3.

**Q.** And the “insulin secretion” value (INS-1 cells [1])?
**A.** Its value is “concentration-dependent manner”.

**Q.** And the “cell viability reduced” value (INS-1 cells [3]; 50 μM streptozotocin)?
**A.** Its value is “significantly increased cell viability”.

**Q.** And the “Cell viability (%)” value (INS-1 cells [3]; 5 µM)?
**A.** The value was 70.1 ± 1.7%.

**Q.** What about the “Cell viability (%)” value (INS-1 cells [3]; 10 µM) of the same compound?
**A.** The value was 68.3 ± 3.2%.

**Q.** And the “Cell viability (%)” value (INS-1 cells [3]; 25 µM)?
**A.** The value was 70.0 ± 4.3%.

**Q.** And the “Cell viability (%)” value (INS-1 cells [3]; 50 µM)?
**A.** Its value is 69.8 ± 3.8%.

**Q.** And the “Cell viability (%)” value (INS-1 cells [3]; 100 µM)?
**A.** Its value is 71.6 ± 0.9%.

**Q.** With `O=C1CC2C(=C3c4c2ccc(O)c4[C@@H](O)C[C@@H]3O)c2cccc(O)c21` (stereo partly shown) [Hypoxylonol-C] as the compound, how does the “Cell viability (%)” value (INS-1 cells [2]; [8]) read?
**A.** Its value is 97.4 ± 1.7%.

**Q.** And the “Cell viability (%)” value (INS-1 cells [2]; [9])?
**A.** The value was 96.4 ± 1.4%.

**Q.** What about the “Cell viability (%)” value (INS-1 cells [2]; [10]) of the same compound?
**A.** The value was 97.3 ± 3.0%.

**Q.** What about the “cytotoxicity / toxicity in words” value (INS-1 cells [2]) of the same compound?
**A.** Its value is “no cytotoxicity; also recorded: no toxicity”.

**Q.** And the “Stimulation index (SI)” value (INS-1 cells [1]; [11])?
**A.** The value was 6.3 ± 0.3.

**Q.** And the “Stimulation index (SI)” value (INS-1 cells [1]; [6])?
**A.** Its value is 5.3 ± 0.1.

**Q.** And the “Stimulation index (SI)” value (INS-1 cells [1]; [7])?
**A.** The value was 6.1 ± 0.1.

**Q.** What about the “insulin secretion” value (INS-1 cells [1]) of the same compound?
**A.** Its value is “concentration-dependent manner”.

**Q.** What about the “cell viability reduced” value (INS-1 cells [3]; 50 μM streptozotocin) of the same compound?
**A.** The value was “significantly increased cell viability”.

**Q.** What about the “Cell viability (%)” value (INS-1 cells [3]; 5 µM) of the same compound?
**A.** The value was 66.0 ± 0.9%.

**Q.** And the “Cell viability (%)” value (INS-1 cells [3]; 10 µM)?
**A.** The value was 75.6 ± 2.5%.

**Q.** And the “Cell viability (%)” value (INS-1 cells [3]; 25 µM)?
**A.** The value was 80.7 ± 1.5%.

**Q.** What about the “Cell viability (%)” value (INS-1 cells [3]; 50 µM) of the same compound?
**A.** The value was 85.7 ± 1.7%.

**Q.** And the “green fluorescent (apoptotic) cells, microscopic image FIG. 8A” value (INS-1 cells [4])?
**A.** Its value is “apoptotic cells were decreased”.

**Q.** And the “Apoptosis (%)” value (INS-1 cells [4])?
**A.** The value was 21.6 ± 1.5%.

**Q.** What about the “apoptosis by streptozotocin in words, FIG. 8B” value (INS-1 cells [4]) of the same compound?
**A.** Its value is “remarkably reduced apoptosis”.

**Q.** And the antiangiogenic effect [5]?
**A.** The antiangiogenic effect was “has an antiangiogenic effect”.

**Q.** For `CN(N=O)C(=O)N[C@H]1C(O)O[C@H](CO)[C@@H](O)[C@@H]1O` (mixture of isomers) [streptozotocin, reference compound], which “number of INS-1 cells as compared with non-treated group” value (INS-1 cells [3]; 50 μM streptozotocin, 24 hours) is on record?
**A.** Its value is ≤ 50%.
